# According to patent publication US7858647B2, “N-[1,3,4]-thiadiazol-2-yl-benzene sulfonamides, pharmaceutical compositions thereof and methods for their therapeutic use” (Sanofi-Aventis, priority 2005, dated 2010):
# Where two headings read alike, the source gives them in different places.
# Key:
# human PPARdelta = target: T1, human PPARdelta (Homo sapiens, UniProt Q03181); experiment: Cellular PPARdelta assay (luciferase reporter, stably transfected HEK cell line); assay type: cell-based; details: GR-GAL4-humanPPARdelta-LBD
# T1 construct: amino acids S139-Y441; expressed in transfected cells
# T1 sequence (Q03181 139-441): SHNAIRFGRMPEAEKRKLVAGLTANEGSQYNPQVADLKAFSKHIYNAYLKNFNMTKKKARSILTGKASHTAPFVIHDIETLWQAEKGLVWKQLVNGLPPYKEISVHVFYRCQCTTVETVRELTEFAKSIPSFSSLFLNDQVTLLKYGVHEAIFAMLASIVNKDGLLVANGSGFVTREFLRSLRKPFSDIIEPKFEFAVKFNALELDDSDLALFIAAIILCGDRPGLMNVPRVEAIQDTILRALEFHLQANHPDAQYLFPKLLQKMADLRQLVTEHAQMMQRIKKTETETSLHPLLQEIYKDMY
# Procedure: The activity of PPARalpha agonists is determined in a 3-day assay which is described below:
# The PPARalpha reporter cell line is cultivated to 80% confluence in DMEM (#41965-039, Invitrogen) which is mixed with the following additions: 10% cs-FCS (fetal calf serum; #SH-30068.03, Hyclone), 0.5 mg/ml zeocin (#R250-01, Invitrogen), 0.5 mg/ml G418 (#10131-027, Invitrogen), 1% penicillin-streptomycin solution (#15140-122, Invitrogen) and 2 mM L-glutamine (#25030-024, Invitrogen). The cultivation takes place in standard cell culture bottles (#353112, Becton Dickinson) in a cell culture incubator at 37° C. in the presence of 5% CO2. The 80%-confluent cells are washed once with 15 ml of PBS (#14190-094, Invitrogen), treated with 3 ml of trypsin solution (#25300-054, Invitrogen) at 37° C. for 2 min, taken up in 5 ml of the DMEM described and counted in a cell counter. After dilution to 500.000 cells/ml, 35,000 cells are seeded in each well of a 96 well microtiter plate with a clear plastic base (#3610, Corning Costar). The plates are incubated in the cell culture incubator at 37° C. and 5% CO2 for 24 h.
# PPARalpha Agonists to be Tested are Dissolved in DMSO in a Concentration of 10 mM. This stock solution is diluted in DMEM (#41965-039, Invitrogen) which is mixed with 5% cs-FCS (#SH-30068.03, Hyclone), 2 mM L-glutamine (#25030-024, Invitrogen) and the previously described antibiotics (zeocin, G418, penicillin and streptomycin). Test substances are tested in 11 different concentrations in the range from 10 μM to 100 pM.
# The medium of the PPARalpha reporter cell line seeded on day 1 is completely removed by aspiration, and the test substances diluted in medium are immediately added to the cells. The dilution and addition of the substances is carried out by a robot (Beckman FX). The final volume of the test substances diluted in medium is 100 μl per well of a 96 well microtiter plate. The DMSO concentration in the assay is less than 0.1% v/v in order to avoid cytotoxic effects of the solvent.
# The assay plates are incubated in an incubator at 37° C. and 5% CO2 for 24 h.
# The PPARalpha reporter cells treated with the test substances are removed from the incubator, and the medium is aspirated off. The cells are lyzed by pipetting 50 μl of Bright Glo reagent (from Promega) into each well of a 96 well microtiter plate. After incubation at room temperature in the dark for 10 minutes, the microtiter plates are measured in the luminometer (Trilux from Wallac). The measuring time for each well of a microtiter plate is 1 sec.
# The raw data from the luminometer are transferred into a Microsoft Excel file. Dose-effect plots and EC50 values of PPAR agonists are calculated using the XL.Fit program as specified by the manufacturer (IDBS).
# The potency of substances which bind to human PPARdelta and activate it in an agonistic manner is analyzed using a stably transfected HEK cell line (HEK=human embryo kidney) which is referred to here as PPARdelta reporter cell line. In analogy to the assay described for PPARalpha, the PPARdelta reporter cell line also contains two genetic elements, a luciferase reporter element (pdeltaM-GAL4-Luc-Zeo) and a PPARdelta fusion protein (GR-GAL4-humanPPARdelta-LBD) which mediates expression of the luciferase reporter element depending on a PPARdelta ligand. The stably and constitutively expressed fusion protein GR-GAL4-humanPPARdelta-LBD binds in the cell nucleus of the PPARdelta reporter cell line via the GAL4 protein portion to the GAL4 DNA binding motifs 5′-upstream of the luciferase reporter element which is stably integrated in the genome of the cell line. There is only little expression of the luciferase reporter gene in the absence of a PPARdelta ligand if fatty acid-depleted fetal calf serum (cs-FCS) is used in the assay. PPARdelta ligands bind and activate the PPARdelta fusion protein and thereby stimulate expression of the luciferase reporter gene. […]
# [1] = diabetic animal model; cited from earlier work
# [2] = obese, insulin resistant rhesus monkeys, cited from earlier work
# [3] = two weeks clinical trials in healthy volunteers; cited from earlier work
# [4] = rhesus monkeys; cited from earlier work
# [5] = cynomolgus monkeys; cited from earlier work
smiles,measurement,setting,value
"CCOc1cc(C(F)(F)F)ccc1C(=O)NCCc1ccc(S(=O)(=O)Nc2nnc(C(C)C)s2)cc1 [Example 16, 2-Ethoxy-N-{2-[4-(5-isopropyl-[1,3,4]thiadiazol-2-ylsulfamoyl)-phenyl]-ethyl}-4-trifluoromethyl-benzamide]",EC50,human PPARdelta,46 nM
CCCc1c(OCCCOc2ccc(OCC(=O)O)cc2)ccc(C(C)=O)c1O [Example L-165041],plasma cholesterol,[1],raises
Cc1cc(SCc2sc(-c3ccc(C(F)(F)F)cc3)nc2C)ccc1OCC(=O)O [GW501516],insulin levels,[2]; plasma,decreases
same,triglycerides,[2]; plasma,decreases
same,HDL-cholesterol,[2],raises
same,plasma LDL-cholesterol,[2],decreases
CCCc1c(OCCCSc2nnc(SCC(=O)O)s2)ccc(C(C)=O)c1O [YM-16638],plasma lipids,[3],acts in a similar manner
same,plasma lipids,[4],significantly lowers
same,plasma lipids,[5],significantly lowers
